Calls of active or inactive are those of the source. Rule as the data show it: actives have a measured IC50 and inactives only a lower limit.

For the assay, the target named is Envelope glycoprotein gp160 (Human immunodeficiency virus 1, UniProt Q6QLK5). The experiment in a line: cell-free HIV fusion peptide-binding blockers – biochemical, uHTS, fluorescence dequenching, […] (AID 1986).
Envelope glycoprotein gp160, sequence (Q6QLK5 whole entry, the tested form may be a part): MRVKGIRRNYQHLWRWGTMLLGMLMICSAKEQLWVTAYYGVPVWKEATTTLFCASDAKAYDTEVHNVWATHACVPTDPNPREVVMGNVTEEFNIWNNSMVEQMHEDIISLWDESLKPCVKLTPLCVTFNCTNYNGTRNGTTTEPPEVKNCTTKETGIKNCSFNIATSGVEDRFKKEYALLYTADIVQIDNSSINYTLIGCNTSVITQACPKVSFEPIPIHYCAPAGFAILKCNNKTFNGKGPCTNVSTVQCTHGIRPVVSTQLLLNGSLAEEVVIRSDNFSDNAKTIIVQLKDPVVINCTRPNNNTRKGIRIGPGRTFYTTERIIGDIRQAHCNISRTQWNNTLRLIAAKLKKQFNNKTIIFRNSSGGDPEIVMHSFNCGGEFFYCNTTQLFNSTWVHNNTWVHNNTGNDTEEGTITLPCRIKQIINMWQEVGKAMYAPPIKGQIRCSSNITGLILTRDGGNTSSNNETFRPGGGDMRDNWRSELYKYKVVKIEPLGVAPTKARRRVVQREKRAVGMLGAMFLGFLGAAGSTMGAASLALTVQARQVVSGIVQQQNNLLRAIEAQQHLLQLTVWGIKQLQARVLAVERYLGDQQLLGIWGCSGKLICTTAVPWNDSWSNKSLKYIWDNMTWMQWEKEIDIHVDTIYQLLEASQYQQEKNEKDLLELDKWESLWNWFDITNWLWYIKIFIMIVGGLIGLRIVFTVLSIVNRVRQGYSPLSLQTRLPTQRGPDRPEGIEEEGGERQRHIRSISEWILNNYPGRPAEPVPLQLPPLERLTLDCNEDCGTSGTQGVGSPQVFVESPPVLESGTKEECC
Regarding `O=C(CCN1C(=O)/C(=C/c2ccco2)SC1=S)Nc1ccc(C(=O)O)c(O)c1`, the 50% inhibitory concentration (IC50) (in general, the point on the concentration scale where inhibition reaches its midpoint) is 14.7 µM (active). The result for `CCCOc1cccc(C2C(C(=O)c3cc4ccccc4o3)=C(O)C(=O)N2c2cc(C)on2)c1` (centres undefined) reads 16.9 µM (active). The result for `O=C(O)CN1C(=O)/C(=C\c2cc(Br)ccc2OCc2ccccc2Cl)SC1=S` reads 14.3 µM (active); that for `O=C(O)CN1C(=O)/C(=C\c2cc(Br)ccc2OCc2ccc(F)cc2)SC1=S`, 10.7 µM (active).

Source of the values: ChEMBL document CHEMBL1201862, “PubChem BioAssay data set” (2004).
